The results in this text go back to ChEMBL document CHEMBL1201862, “PubChem BioAssay data set” (2004).

Common to all, as to assay: DTP human tumour cell line panel, 48 h
For assay [1], the system named is KM12.
For assay [2], the system named is SNB-75.
Assay [3] relates to NCI-H226.
Assay [4] concerns HL-60.
The subject of assay [5] is EKVX.
The subject of assay [6] is MDA-MB-435.
The test system of assay [7] is U-251.
Assay [8] concerns SN12C.
In assay [9] the test system is A549.
The subject of assay [10] is SF-539.
For assay [11], the system named is MCF7.
In assay [12] the test system is SF-295.
Assay [13] concerns SNB-19.
Assay [14] concerns UACC-62.
For assay [15], the system named is NCI-H23.
The subject of assay [16] is SK-MEL-28.
Assay [17] has as its system COLO 205.
In assay [18] the test system is SF-268.
The subject of assay [19] is M14.

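In this assay, cells in 96-well plates receive the compound at five concentrations for 48 hours. Endpoints are linearly interpolated between the surrounding concentrations. GI50: concentration for 50% inhibition of growth.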 Active and inactive are the calls of the source. Rule as the data show it: active = GI50 up to about 1.1 µM and inactive = higher. Bounds are passed on as bounds.

Turning to `COc1ccc(-c2nc(Nc3ccccc3)sc2Cc2sc(Nc3ccccc3)nc2-c2ccc(OC)cc2)cc1`, the GI50 (usually the concentration giving 50% growth inhibition) in assay [1] is 8.59 µM (inactive); in assay [2], > 100 µM (inactive); in assay [3], > 100 µM (inactive); in assay [4], 0.787 µM (active); in assay [5], > 100 µM (inactive); in assay [6], 52.4 µM (inactive). Also, the GI50 in [7] was > 100 µM (inactive); in [8], 27 µM (inactive); in assay [9], > 100 µM (inactive); in assay [10], > 100 µM (inactive); in assay [11], 8.05 µM (inactive); in assay [12], > 10 µM (inactive). For the same compound, the GI50 is > 100 µM (inactive) in assay [13]; > 100 µM (inactive) in assay [14]; 37.7 µM (inactive) in assay [15]; > 100 µM (inactive) in assay [16]; 7.57 µM (inactive) in [17]; > 100 µM (inactive) in assay [18].

As to `O=[N+]([O-])c1ccc2c(c1)Sc1ccccc1N2CCCCCl`, the GI50 in assay [1], in assay [2], in assay [3], in [4], in [5] and in assay [6] was > 100 µM (inactive) in each case. Moreover, the GI50 in [7], in [8], in assay [9], in [10], in assay [11] and in assay [12] was > 100 µM (inactive) in each case. In addition, the GI50 in [13], in assay [15], in assay [16], in assay [17] and in assay [18] was > 100 µM (inactive) in each case.

On to `CSc1ncc2c(n1)-c1ccccc1OC2N1CCCC1` (stereo not drawn), for which the GI50 in [1] was > 100 µM (inactive); in assay [2] it was 41.7 µM (inactive); in assay [3], 31 µM (inactive); in assay [4], 52.7 µM (inactive); in assay [5], 42.1 µM (inactive); in [6], > 100 µM (inactive). Moreover, the GI50 in assay [7] was 68.5 µM (inactive); in [8], 71 µM (inactive); in assay [9], > 100 µM (inactive); in assay [10] it was 84.5 µM (inactive); in assay [19], > 100 µM (inactive); in [11], 71.3 µM (inactive). Besides, the GI50 was > 100 µM (inactive) in [12]; > 100 µM (inactive) in assay [13]; 26.4 µM (inactive) in assay [14]; > 100 µM (inactive) in assay [15]; > 100 µM (inactive) in assay [17]; > 100 µM (inactive) in assay [18].

Take `O=c1nc2n(cc1/C=C\Br)C1CC(O)C(CO2)O1` (stereo not drawn): the GI50 in assay [1] is > 100 µM (inactive); in assay [2] it was > 100 µM (inactive); in [3] it was > 100 µM (inactive); in assay [4], 0.792 µM (active); in assay [5] it was > 100 µM (inactive); in assay [6], > 100 µM (inactive). In addition, the GI50 was > 100 µM (inactive) in assay [7]; > 100 µM (inactive) in assay [8]; > 100 µM (inactive) in assay [9]; 38.4 µM (inactive) in [10]; > 100 µM (inactive) in assay [11]; > 100 µM (inactive) in [12]. In addition, the GI50 in [13], in assay [14], in assay [15], in assay [16], in assay [17] and in [18] was > 100 µM (inactive) in each case.

On to `COc1ccc(NC(=S)Nc2cc(C)ccn2)cc1`, for which the GI50 in assay [1], in [2], in assay [3], in assay [4], in assay [5] and in assay [6] was > 100 µM (inactive) each time. The GI50 in assay [7], in assay [10], in assay [11], in assay [13], in assay [14] and in [15] was > 100 µM (inactive) throughout. For the same compound, the GI50 in assay [16], in assay [17] and in assay [18] was > 100 µM (inactive) in each case.

Regarding `O=C(N/N=C/c1ccc(Cl)cc1)c1cc(I)cc(I)c1O`, the GI50 in [1] was > 100 µM (inactive); in assay [2] it was 94.2 µM (inactive); in [3], > 100 µM (inactive); in [4] it was > 100 µM (inactive); in [5], > 100 µM (inactive); in [6] it was > 100 µM (inactive). For the same compound, the GI50 in assay [7], in assay [8], in assay [9], in assay [10], in assay [19] and in [11] was > 100 µM (inactive) in each case. Besides, the GI50 in [12], in [13], in assay [15], in assay [16] and in assay [17] was > 100 µM (inactive) in each case.

As to `N#CI1OC(=O)c2ccccc21`, the GI50 was > 100 µM (inactive) in assay [1]; > 100 µM (inactive) in [2]; > 100 µM (inactive) in [3]; 59.6 µM (inactive) in [4]; > 100 µM (inactive) in assay [5]; > 100 µM (inactive) in assay [6]. Further, the GI50 in [7] is > 100 µM (inactive); in assay [8] it was > 100 µM (inactive); in [9], > 100 µM (inactive); in [10] it was > 100 µM (inactive); in assay [19] it was > 100 µM (inactive); in assay [11] it was 60.7 µM (inactive). Moreover, the GI50 in assay [12] was > 100 µM (inactive); in assay [14], > 100 µM (inactive); in [15], > 100 µM (inactive); in [16], 92 µM (inactive); in assay [17] it was > 100 µM (inactive); in assay [18], > 100 µM (inactive).

On to `COC(=O)/C(C#N)=C(\Nc1ccccc1)N1CCCCC1`, for which the GI50 in [2], in [3], in assay [4], in assay [5], in assay [6] and in assay [7] was > 100 µM (inactive) each time. For the same compound, the GI50 in [8], in assay [9], in assay [10], in [19], in [11] and in assay [12] was > 100 µM (inactive) in each case. Further, the GI50 in assay [13], in assay [15], in assay [16], in assay [17] and in assay [18] was > 100 µM (inactive) each time.
